Experimental data published in patent US20230404989A1, “GRK2 INHIBITION BY PAROXETINE AMELIORATES OSTEOARTHRITIS” (THE PENN STATE RESEARCH FOUNDATION, priority 2020, published 2023).

Columns and labels:
DMM mice [1] = experiment: DMM drug treatment study: OARSI scoring and histomorphometry of knee cartilage; format: in vivo, mouse
Description: Drug treatment studies: In twelve-week old male wild type C57BL/6 mice that received DMM surgeries, vehicle (PBS), paroxetine (5 mg/kg/day), fluoxetine (5 mg/kg/day), gallein (10 mg/kg/day) or indomethacin (2.5 mg/kg/day) were administered daily by ip injection. Drug treatment was initiated 8 weeks following DMM to determine the role of GRK2 signaling in the progression of OA.
Twelve-week-old male mice were administered DMM surgery to the right knee and sham surgery to the left knee as described (S. S. Glasson, Osteoarthritis. Cartilage. 15, 1061-1069 (2007)). Briefly, mice were anesthetized via intraperitoneal injection of ketamine (60 mg/kg) and xylazine (4 mg/kg), and a 5-mm-long incision was made on the medial side of the knee. Under a dissecting microscope, an incision was made along the medial side of the patellar tendon, opening the joint space. Using a #11 scalpel, the medial meniscotibial ligament (MMTL) was transected, enabling the medial meniscus to move freely. A similar skin incision was made in sham knees, but the joint structure was not disturbed. For the sham group, both right and left knees had sham surgeries. After surgery, 4-0 silk sutures were used to close the incision using an interrupted pattern. Mice were provided analgesia via intraperitoneal injection of buprenorphine (0.5 mg/kg) every 12 hours for 72 hours, and sutures were removed after 7 days. Mice were sacrificed, at the indicated time points, by anesthesia followed with whole animal perfusion using 10% NBF, knees were harvested and fixed for 7 days in 10% NBF, decalcified for 7 days in 10% w/v EDTA, embedded in paraffin, and 10-μm sections were cut and mounted for Safranin-O/Fast Green or IF staining.
Semi-quantitative histopathologic grading was performed using a derivative of the Chambers' scoring system that has been established by the OARSI histopathology initiative as the standard method for grading of mouse cartilage degeneration. Based on this system, cartilage grading was carried out using Safranin-O/Fast Green-stained midsagittal sections. Three sections from representative levels (50 μm apart) of the medial compartment of the joint were selected for each sample and, which were evaluated in a randomized, blinded manner by 3 laboratory members. The 3 scores were averaged to calculate the section score, and the sample score was then calculated by averaging the scores obtained from the three levels. Grading was performed using the following scale: 0=normal cartilage, 0.5=loss of proteoglycan stain without cartilage damage, 1=mild superficial fibrillation, 2=fibrillation and/or clefting extending below the superficial zone, 3=mild (<25%) loss of cartilage, 4=moderate (25-50%) loss of cartilage, 5=severe (50-75%) loss of uncalcified cartilage, and 6=eburnation with >75% loss of cartilage. Grading was performed by three blinded observers (F.K., M.J.Z., and E.R.S.). Observer agreement was evaluated in pairs via calculation of a weighted kappa coefficient, using Fleiss-Cohen weights, as we have described. The F.K. versus M.J.Z. coefficient was 0.92, the F.K. versus E.R.S. coefficient was 0.94, and the M.J.Z. versus E.R.S coefficient was 0.89, all indicative of strong agreement between the observers.
Using Safranin-O/Fast Green-stained sections, the OsteoMetrics system was used to quantify the above parameters on three sections from representative levels (50 μm apart) of the medial compartment of the joint for each sample. Live images of the center of the knee joint were collected through an Olympus microscope (10× objective) outfitted with a camera, a stylus was used to trace the regions of interest (ROIs). A blinded observer quantified uncalcified articular cartilage area, total chondrocyte number and matrix-producing chondrocyte number using the built-in area calculation algorithms and quantification functions of the OsteoMeasure® system. […]

[2] = test system: Gas activity (cAMP content in cartilage); experiment: cAMP assay in tibial articular cartilage of drug-treated DMM mice; format: in vivo, mouse; settings: daily ip week 8 to 12
Description: Drug treatment studies: In twelve-week old male wild type C57BL/6 mice that received DMM surgeries, vehicle (PBS), paroxetine (5 mg/kg/day), fluoxetine (5 mg/kg/day), gallein (10 mg/kg/day) or indomethacin (2.5 mg/kg/day) were administered daily by ip injection. Drug treatment was initiated 8 weeks following DMM to determine the role of GRK2 signaling in the progression of OA. Short term drug treatment study: To evaluate the acute effect of drug treatments, GRK2^f/f mice received sham or DMM surgery followed by treatment with vehicle, paroxetine, gallein, fluoxetine, or indomethacin with the doses indicated above for 1 week beginning at 8 weeks post DMM. All mice were sacrificed 9 weeks post DMM, 21 weeks of age, for analysis of OA progression. Gas activity was measured by quantifying cAMP content in cartilage pooled from 3 mice. Tibial cartilage was dissected out and snap frozen in liquid Nitrogen. As positive control, tibial cartilage obtained from normal mice was treated with 0.5 mM 3-isobutyl-1-methylxanthine (IBMX) for 30 minutes, followed by 0.1 mM Forskolin for 15 minutes, then snap frozen in liquid Nitrogen. For human cartilage cAMP content, 70 mg frozen cartilage were used. Frozen cartilage was pulverized using 500 μL lysis buffer as we have previously described (H. K. Le Bleu, Anal Biochem, 518, 134-138 (2017)). cAMP content was quantified using the Cyclic AMP XP Assay kit (Cell Signaling, #4339) and following manufacturer's protocol, with 0.5 mM IBMX added to the lysis buffer to prevent phosphodiesterase mediated cAMP degradation during the extraction process. cAMP levels in different groups were normalized to that of sham mice or the vehicle treated human cartilage.

DMM mice [3] = experiment: Anterior femoral synovial membrane thickness in DMM mice; format: in vivo, mouse; settings: daily ip week 8 to 12, versus vehicle
Description: Drug treatment studies: In twelve-week old male wild type C57BL/6 mice that received DMM surgeries, vehicle (PBS), paroxetine (5 mg/kg/day), fluoxetine (5 mg/kg/day), gallein (10 mg/kg/day) or indomethacin (2.5 mg/kg/day) were administered daily by ip injection. Drug treatment was initiated 8 weeks following DMM to determine the role of GRK2 signaling in the progression of OA. Using Safranin-O/Fast Green-stained sections, the OsteoMetrics system was used to quantify the above parameters on three sections from representative levels (50 μm apart) of the medial compartment of the joint for each sample. Live images of the center of the knee joint were collected through an Olympus microscope (10× objective) outfitted with a camera, a stylus was used to trace the regions of interest (ROIs). A blinded observer quantified uncalcified articular cartilage area, total chondrocyte number and matrix-producing chondrocyte number using the built-in area calculation algorithms and quantification functions of the OsteoMeasure® system. […] The calcified cartilage was determined with a line drawn along the tide mark, which is the naturally occurring line separating the calcified and uncalcified regions of the articular cartilage. A second line was drawn at the chondro-osseous junction where the calcified cartilage meets the subchondral bone. The uncalcified cartilage area was determined by subtracting the calcified cartilage area from the total area of cartilage. Total chondrocyte number and matrix-producing chondrocyte number were counted within the uncalcified cartilage region using count functions within the histomorphometry system. Matrix-producing chondrocytes were counted based on the region of Safranin-O staining within the extracellular matrix surrounding the articular chondrocyte, indicating anabolic signaling to maintain matrix homeostasis. Similarly, the anterior femoral synovial thickness was measured using OsteoMeasure® software. Synovial membrane thickness extending from anterior horn of the medial meniscus to the femur was determined by drawing a line from the inner insertion point on the femur towards the attachment on the meniscus. A second line was drawn from the outer insertion of the femur towards the attachment to the meniscus. The synovial thickness was calculated by dividing total synovial area by synovial perimeter.

GRK2 = molecular target: T1, GRK2 (Homo sapiens, UniProt P25098); settings: from cited literature; cited from earlier work
T1 sequence (P25098 1-689): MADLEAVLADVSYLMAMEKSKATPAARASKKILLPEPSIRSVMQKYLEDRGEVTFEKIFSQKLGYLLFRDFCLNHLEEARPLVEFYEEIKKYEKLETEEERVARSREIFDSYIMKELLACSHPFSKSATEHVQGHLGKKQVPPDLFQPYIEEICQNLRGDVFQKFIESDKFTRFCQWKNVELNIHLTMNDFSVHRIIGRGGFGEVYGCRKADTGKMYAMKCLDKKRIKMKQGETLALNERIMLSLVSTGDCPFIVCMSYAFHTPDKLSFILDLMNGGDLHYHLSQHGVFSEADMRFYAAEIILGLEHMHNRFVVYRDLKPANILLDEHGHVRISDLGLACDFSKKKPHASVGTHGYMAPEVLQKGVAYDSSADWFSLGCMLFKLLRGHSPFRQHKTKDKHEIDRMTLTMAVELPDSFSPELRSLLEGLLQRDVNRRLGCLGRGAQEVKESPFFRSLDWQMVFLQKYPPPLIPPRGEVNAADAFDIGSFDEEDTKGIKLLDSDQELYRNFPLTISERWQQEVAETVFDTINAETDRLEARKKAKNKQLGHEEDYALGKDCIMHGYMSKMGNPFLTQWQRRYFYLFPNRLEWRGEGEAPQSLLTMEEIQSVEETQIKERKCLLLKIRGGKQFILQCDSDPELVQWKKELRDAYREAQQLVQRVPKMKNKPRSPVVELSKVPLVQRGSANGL

DMM mice [4] = experiment: DMM mice treated with PTH, paroxetine or their combination: histology and histomorphometry (Example 1); format: in vivo, mouse; settings: treatment week 8 to 12, PTH sc 40 μg/kg/day, paroxetine ip 5 mg/kg/day
Description: Methods: Destabilization of the medial meniscus (DMM) surgery was used to simulate clinical post-traumatic OA. First, we determined the role of GRK2 inhibition in PTH1R Gas-cAMP signaling: 12 week old male mice underwent sham or DMM surgery and were treated with either vehicle or the GRK2 inhibitor “paroxetine” (ip, 5 mg/kg/day), treatment was initiated at the time of surgery and continued daily until 8 weeks. Knees were harvested and articular cartilage was obtained for ex vivo analysis of Gas activity. In ex vivo culture, cartilage explants were treated with PTH as an agonist to stimulate PTH1R-Ga-cAMP signaling. Thirty minutes following PTH stimulation, cartilage tissue was homogenized and cAMP levels were measured. Then, we determined the role of GRK2 inhibition in recovering or even potentiating PTH1R signaling in OA cartilage: 12 week old male mice underwent sham or DMM surgery, and received treatment with vehicle, PTH (sc, 40 μg/kg/day) alone, the GRK2 inhibitor “paroxetine3” (ip, 5 mg/kg/day) alone, or their combination. Treatment was initiated at week 8 following DMM surgery, where OA is in progress, and continued until week 12 where mice were sacrificed. Knees were harvested, paraffin embedded, sectioned and stained with safranin-o and fast green for histological evaluation, OARSI scoring, and histomorphometric analysis. Results are expressed as mean values+s.e.m. with an N=5-8 mice per experimental group. Statistical analyses were performed using one ANVOA with P<0.05 representing statistical significance.

DMM mice [5] = experiment: Paroxetine combined with PTH in DMM mice: Micro-CT of subchondral bone; format: in vivo, mouse; settings: daily from 8 weeks, harvest 12 weeks after surgery
[6] = daily ip week 8 to 12, versus vehicle

With `CNCCC(Oc1ccc(C(F)(F)F)cc1)c1ccccc1` (stereo not shown) [fluoxetine] the “cartilage degeneration (Safranin-O and Fast Green histology)” value (DMM mice [1]; daily ip week 8 to 12) was “progressive cartilage degeneration”, the “chondro-protective and matrix-regenerative effects (overall)” value (DMM mice [1]; daily ip week 8 to 12) was “lacks chondro-protective and matrix-regenerative effects” and the “total number of chondrocytes” value (DMM mice [1]; daily ip week 8 to 12) was “only mild preservation”. For the same molecule, the uncalcified cartilage area (DMM mice [1]; daily ip week 8 to 12) was “no preservation”, the OARSI score (DMM mice [1]; [6]) was “high” and the “number of matrix producing chondrocytes” value (DMM mice [1]; [6]) was “low”. For the same molecule, the “cAMP levels in the articular cartilage” value [2] was “not different from vehicle treated mice”, the synovial membrane thickness (DMM mice [3]) was “attenuated” and the GRK2 inhibitory effect (GRK2) was “lacks any GRK2-inhibitory effects”.

In the case of `COc1ccc2c(c1)c(CC(=O)O)c(C)n2C(=O)c1ccc(Cl)cc1` [indomethacin], the “cartilage degeneration (Safranin-O and Fast Green histology)” value (DMM mice [1]; daily ip week 8 to 12) was “progressive cartilage degeneration”, the “chondro-protective and matrix-regenerative effects (overall)” value (DMM mice [1]; daily ip week 8 to 12) was “no chondro-protective or matrix-regenerative effects” and the synovial membrane thickness (DMM mice [3]) was “significantly reduced”.

For parathyroid hormone [PTH], the chondrocyte number (DMM mice [4]) was “increased”, the “number of matrix-producing (anabolic) chondrocytes” value (DMM mice [4]) was “particular increase” and the uncalcified cartilage area (DMM mice [4]) was “increased”. The “effect on the subchondral bone of OA mice (plate thickness, BMD, BV/TV, Tb.Th, osteophytes)” value (DMM mice [5]) was “deleterious effects”.
